Results on two molecules are retold here after article PMC5791972 (PLoS ONE, 2018).

Structures are written as SMILES. Entries after “also recorded” stand apart in the source; their conditions may differ. Read-outs that look alike come from different tables or passages of the source.

As a reminder, the inhibition is the relative decrease from the control value, in per cent.

In one data set the test system is C57/BL6 mice. Briefly: Standard elevated plus maze. Particulars: 3 mg/kg oral, 60 min prior.
Data set [1] is described as follows: Standard elevated plus maze. The following applies: male, C57/BL6, mouse, in vivo, 3 mg/kg.
A further data set has as its target T1, caspase-3 (h) (Homo sapiens, UniProt P42574).
T1 construct: Cerep (contract assay); host or cells: E. coli
T1 sequence (P42574 29-175 limits assumed): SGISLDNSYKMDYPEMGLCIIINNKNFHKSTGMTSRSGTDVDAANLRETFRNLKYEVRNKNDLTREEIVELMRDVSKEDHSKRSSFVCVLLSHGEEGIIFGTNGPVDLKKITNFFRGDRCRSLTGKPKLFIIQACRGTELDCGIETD
T1 sequence (P42574 176-277 limits assumed): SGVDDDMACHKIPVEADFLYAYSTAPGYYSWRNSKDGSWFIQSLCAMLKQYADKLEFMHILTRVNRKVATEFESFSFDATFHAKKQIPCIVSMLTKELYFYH
In words: biochemical. Particulars: 1.0E-06 M.

The target of the next data set is T2, AT1 (h) (Homo sapiens, UniProt P30556).
T2 construct: host or cells: HEK-293 cells
T2 sequence (P30556 1-359): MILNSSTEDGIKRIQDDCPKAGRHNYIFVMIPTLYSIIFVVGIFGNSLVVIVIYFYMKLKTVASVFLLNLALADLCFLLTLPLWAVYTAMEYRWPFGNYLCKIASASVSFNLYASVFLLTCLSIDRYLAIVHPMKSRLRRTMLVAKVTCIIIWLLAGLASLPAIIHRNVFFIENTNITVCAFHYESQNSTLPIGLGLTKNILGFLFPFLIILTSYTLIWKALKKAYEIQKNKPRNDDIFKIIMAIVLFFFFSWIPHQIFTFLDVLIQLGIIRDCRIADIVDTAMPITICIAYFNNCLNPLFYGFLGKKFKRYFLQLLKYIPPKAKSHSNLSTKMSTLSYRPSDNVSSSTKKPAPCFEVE
The format is binding. Particulars: 1.0E-06 M.

A further data set concerns the target D2S (h) (Homo sapiens, UniProt P14416). Briefly: biochemical.
Another data set deals with T3, α2A (h) (Homo sapiens, UniProt P08913).
T3 construct: host or cells: CHO cells
T3 sequence (P08913 1-465): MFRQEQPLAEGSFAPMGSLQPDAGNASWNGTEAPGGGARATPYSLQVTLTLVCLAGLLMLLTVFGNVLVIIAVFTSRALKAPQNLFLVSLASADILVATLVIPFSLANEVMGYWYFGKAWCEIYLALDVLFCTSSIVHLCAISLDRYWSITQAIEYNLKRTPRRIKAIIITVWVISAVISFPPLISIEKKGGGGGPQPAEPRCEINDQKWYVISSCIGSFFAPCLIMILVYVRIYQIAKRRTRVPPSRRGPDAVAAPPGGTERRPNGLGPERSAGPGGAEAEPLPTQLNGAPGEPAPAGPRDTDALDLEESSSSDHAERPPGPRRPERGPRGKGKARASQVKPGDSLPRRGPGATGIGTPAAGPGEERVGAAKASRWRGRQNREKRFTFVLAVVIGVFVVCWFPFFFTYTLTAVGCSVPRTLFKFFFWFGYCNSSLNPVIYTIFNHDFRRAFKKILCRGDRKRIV
The format is binding. The following applies: 1.0E-06 M.

For another data set, the target named is T4, ZAP70 kinase (h) (Homo sapiens, UniProt P43403).
T4 construct: host or cells: insect cells
T4 sequence (P43403 1-619): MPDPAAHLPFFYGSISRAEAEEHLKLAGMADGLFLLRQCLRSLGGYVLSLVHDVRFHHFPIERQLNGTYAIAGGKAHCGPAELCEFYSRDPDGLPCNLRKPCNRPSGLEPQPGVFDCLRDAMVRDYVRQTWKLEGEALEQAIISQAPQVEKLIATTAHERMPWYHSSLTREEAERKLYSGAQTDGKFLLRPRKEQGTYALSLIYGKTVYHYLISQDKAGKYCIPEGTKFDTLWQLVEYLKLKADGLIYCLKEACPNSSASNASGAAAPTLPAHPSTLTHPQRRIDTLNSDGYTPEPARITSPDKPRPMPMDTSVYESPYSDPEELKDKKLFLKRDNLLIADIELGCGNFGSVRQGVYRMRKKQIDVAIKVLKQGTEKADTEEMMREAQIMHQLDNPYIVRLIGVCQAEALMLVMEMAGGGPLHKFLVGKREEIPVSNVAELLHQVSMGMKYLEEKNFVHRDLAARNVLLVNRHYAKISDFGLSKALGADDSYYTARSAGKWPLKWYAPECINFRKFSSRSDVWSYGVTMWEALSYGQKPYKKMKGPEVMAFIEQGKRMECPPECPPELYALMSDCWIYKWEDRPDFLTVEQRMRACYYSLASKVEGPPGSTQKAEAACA
Briefly: biochemical. The following applies: 1.0E-06 M.

In a further data set the target is 5-HT6 (h) (Homo sapiens, UniProt P50406). In words: biochemical.
The target in a further data set is M3 (h) (Homo sapiens, UniProt P20309). Briefly: biochemical.
In another data set the target is T5, M1 (h) (Homo sapiens, UniProt P11229).
T5 construct: host or cells: CHO cells
T5 sequence (P11229 1-460): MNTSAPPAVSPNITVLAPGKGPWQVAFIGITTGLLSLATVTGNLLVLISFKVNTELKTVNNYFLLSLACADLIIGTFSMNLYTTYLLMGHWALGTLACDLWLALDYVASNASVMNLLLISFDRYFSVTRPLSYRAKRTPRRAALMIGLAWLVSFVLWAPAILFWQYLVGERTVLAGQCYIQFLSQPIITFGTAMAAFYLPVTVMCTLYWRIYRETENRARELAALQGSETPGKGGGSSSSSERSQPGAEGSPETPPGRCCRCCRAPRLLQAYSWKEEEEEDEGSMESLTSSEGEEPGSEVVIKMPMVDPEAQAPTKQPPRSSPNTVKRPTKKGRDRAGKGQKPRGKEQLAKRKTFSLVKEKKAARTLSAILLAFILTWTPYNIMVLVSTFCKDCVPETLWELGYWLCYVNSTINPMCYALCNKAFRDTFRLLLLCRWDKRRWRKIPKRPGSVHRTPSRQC
In words: biochemical. Format: binding. The following applies: 1.0E-06 M.

D2S (h), sequence (P14416 1-414 isoform P14416-2): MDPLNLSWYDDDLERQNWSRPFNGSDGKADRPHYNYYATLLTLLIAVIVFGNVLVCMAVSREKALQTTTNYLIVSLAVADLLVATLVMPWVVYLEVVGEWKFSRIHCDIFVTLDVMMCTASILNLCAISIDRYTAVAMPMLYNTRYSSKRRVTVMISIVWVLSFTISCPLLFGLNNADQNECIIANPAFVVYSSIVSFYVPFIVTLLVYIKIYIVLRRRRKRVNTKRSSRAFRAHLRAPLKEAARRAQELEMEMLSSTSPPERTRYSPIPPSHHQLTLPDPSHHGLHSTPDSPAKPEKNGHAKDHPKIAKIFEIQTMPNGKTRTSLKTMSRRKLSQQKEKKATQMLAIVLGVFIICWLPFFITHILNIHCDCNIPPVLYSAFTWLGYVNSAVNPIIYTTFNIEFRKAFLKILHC
5-HT6 (h), sequence (P50406 whole entry): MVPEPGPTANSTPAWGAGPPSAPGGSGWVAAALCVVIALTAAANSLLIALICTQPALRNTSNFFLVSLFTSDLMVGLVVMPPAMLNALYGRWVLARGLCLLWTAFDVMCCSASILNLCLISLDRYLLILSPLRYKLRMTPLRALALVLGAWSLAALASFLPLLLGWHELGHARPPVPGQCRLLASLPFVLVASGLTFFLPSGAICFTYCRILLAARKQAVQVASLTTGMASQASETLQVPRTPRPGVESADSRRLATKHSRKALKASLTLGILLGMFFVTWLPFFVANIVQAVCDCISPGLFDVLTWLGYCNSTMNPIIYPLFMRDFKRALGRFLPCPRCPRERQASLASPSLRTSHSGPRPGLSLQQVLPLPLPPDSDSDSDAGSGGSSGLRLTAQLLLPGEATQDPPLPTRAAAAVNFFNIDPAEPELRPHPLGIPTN
M3 (h), sequence (P20309 whole entry): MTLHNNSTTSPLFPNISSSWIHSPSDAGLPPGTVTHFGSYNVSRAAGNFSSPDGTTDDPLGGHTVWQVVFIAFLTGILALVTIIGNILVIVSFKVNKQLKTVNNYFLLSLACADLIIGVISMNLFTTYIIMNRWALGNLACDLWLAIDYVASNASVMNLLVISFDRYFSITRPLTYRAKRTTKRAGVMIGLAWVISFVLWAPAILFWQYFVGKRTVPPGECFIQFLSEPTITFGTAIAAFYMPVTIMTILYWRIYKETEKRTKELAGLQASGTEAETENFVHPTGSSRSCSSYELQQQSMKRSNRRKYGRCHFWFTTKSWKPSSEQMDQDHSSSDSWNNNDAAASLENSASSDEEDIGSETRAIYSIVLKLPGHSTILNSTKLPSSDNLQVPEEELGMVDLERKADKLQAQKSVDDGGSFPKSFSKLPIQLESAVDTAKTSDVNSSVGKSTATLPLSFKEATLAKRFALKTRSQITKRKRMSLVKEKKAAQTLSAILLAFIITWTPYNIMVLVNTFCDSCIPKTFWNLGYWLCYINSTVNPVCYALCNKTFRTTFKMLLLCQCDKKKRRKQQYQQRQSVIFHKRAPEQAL

`Cn1c(=O)n(CCCO)c(=O)c2c1nc(Oc1cccc(Cl)c1)n2Cc1ccc(Cl)cc1` [HC-070]: in the data set with C57/BL6 mice, the “number of open arm entries compared to vehicle” value is on record as “increased open arm entries; also recorded: significantly increased”. Also, the concentration at 60 min in [1] came to 782 ± 250 nM.

For the molecule `Cn1c(=O)n(CCCO)c(=O)c2c1nc(Oc1cccc(OC(F)(F)F)c1)n2Cc1ccc(Cl)cc1` [HC-608], the inhibition at 1 µM at caspase-3 (h) (read-out: % Inhibition 1st) is 3.7%; at caspase-3 (h) (read-out: % Inhibition 2nd), 2.3%; on caspase-3 (h) (read-out: % Inhibition Mean), 3%; on AT1 (h) (read-out: % Inhibition 1st) it was 0.5%; at AT1 (h) (read-out: % Inhibition 2nd), -6%; at AT1 (h) (read-out: % Inhibition Mean), -2.7%. Moreover, the inhibition at 1 µM at D2S (h) (read-out: % Inhibition 1st) is 19.2%; on D2S (h) (read-out: % Inhibition 2nd), 9.4%; on D2S (h) (read-out: % Inhibition Mean), 14.3%; on α2A (h) (read-out: % Inhibition 1st) it was -14.9%; at α2A (h) (read-out: % Inhibition 2nd) it was -3.7%; on α2A (h) (read-out: % Inhibition Mean), -9.3%. Besides, the inhibition at 1 µM is -1.6% at ZAP70 kinase (h) (read-out: % Inhibition 1st); -3% at ZAP70 kinase (h) (read-out: % Inhibition 2nd); -2.3% at ZAP70 kinase (h) (read-out: % Inhibition Mean); -5.1% at 5-HT6 (h) (read-out: % Inhibition 1st); 7.3% on 5-HT6 (h) (read-out: % Inhibition 2nd); 1.1% on 5-HT6 (h) (read-out: % Inhibition Mean). The inhibition at 1 µM at M3 (h) (read-out: % Inhibition 1st) was -9%; on M3 (h) (read-out: % Inhibition 2nd) it was -7.5%; on M3 (h) (read-out: % Inhibition Mean) it was -8.2%; at M1 (h) (read-out: % Inhibition 1st), -1.6%; at M1 (h) (read-out: % Inhibition 2nd) it was 5.5%; on M1 (h) (read-out: % Inhibition Mean), 2%.
